Assay results published in patent publication US6362164B1, “Combination of a somatostatin analogue and a rapamycin” (Novartis AG, priority 1996, dated 2002).

Experiments:
AR42J cells = experiment: In vitro AR42J cell growth assay (SRB staining, delta OD); assay type: cell-based, rat; design: Cell Growth (ΔOD): unit not given here; settings: octreotide 1.2 nM, Compound B 12.0 nM, combination 1.2 + 12.0 nM; for Cell Growth (% of CONTROL) Observed: control = 100
[1] = test system: AR42J (AR4-2J) rat pancreatic tumor cell line; experiment: In vivo AR42J tumor growth in nude mice; settings: after 4 weeks; s.c. AR42J tumors in female nude mice; Compound B or rapamycin 5 mg/kg p.o., octreotide slow release 30 mg/kg s.c. single inj.; control 4020 (3 week value)
Method: Cultures are propagated in DMEM supplemented with 10% fetal calf serum (FCS) at 5% CO2. Cells are grown in the absence of antibiotics or antifungal agents. Female nude mice (nu/nu Balbc-A from Iffa Credo, Lyon, France) weighing 19-22 g, are kept in groups of 5 animals in macrolon cages (type III, 16×22×11 cm). The cages are placed in ventilated cabinets (Iffa Credo) that are maintained at 24±1° C. The animals have free access to drinking water and a pathogen-free rodent diet (Diet A, Kliba, Basel, Switzerland). To initiate tumors from cultured cells, AR42J cells are trypsinized and 10×10^6 tumor cells (in 0.2 ml) are injected subcutaneously (s.c.) into both flanks of nude mice. […] Control animals receive placebo. Animals are treated as indicated below for 3 weeks with single agents or the drug combination. The somatostatin analogue is given as a single injection of a slow release form at 30 mg/kg s.c. The size of the tumors is determined with a caliper. To calculate the tumor volume in ml, the equation “volume (ellipsoid)=length×depth×height×0.52” was used.
After 4 weeks, the following tumor sizes were determined.

**Q.** With CO[C@H]1C[C@@H]2CC[C@@H](C)[C@@](O)(O2)C(=O)C(=O)N2CCCC[C@H]2C(=O)O[C@H]([C@H](C)C[C@@H]2CC[C@@H](OCCO)[C@H](OC)C2)CC(=O)[C@H](C)/C=C(\C)[C@@H](O)[C@@H](OC)C(=O)[C@H](C)C[C@H](C)/C=C/C=C/C=C/1C [Compound B, 40-O-(2-hydroxy)ethyl-rapamycin] as the compound, how does the “Cell Growth (% of CONTROL) Observed” value (AR42J cells) read?
**A.** 63.3%

**Q.** What about the “Tumor Volume” value [1] of the same compound?
**A.** 3685 mm^3

**Q.** Which “Tumor Volume” value [1] does the source give for Rapamycin here?
**A.** 2748 mm^3

**Q.** With octreotide as the compound, how does the “Cell Growth (ΔOD)” value (AR42J cells; DMEM+2.5% FCS, control 664 ± 9) read?
**A.** 397 ± 16

**Q.** What about the “Cell Growth (% of CONTROL) Observed” value (AR42J cells) of the same compound?
**A.** 59.8%
